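Test compounds were applied to cells in 96-well plates for 48 hours at 5 doses. Abbreviation: GI50, concentration required for 50% inhibition of growth. TGI marks complete inhibition of growth.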
Experiments:
Assay in all cases: NCI-60 cell line screen, 48 h
786-0 renal = system: 786-0 renal
A498 renal = system: A498 renal
A549 NSCLC = system: A549 NSCLC
ACHN renal = system: ACHN renal
BT-549 breast = system: BT-549 breast
CAKI-1 renal = system: CAKI-1 renal
CCRF-CEM leukemia = system: CCRF-CEM leukemia
COLO 205 colon = system: COLO 205 colon
DU-145 prostate = system: DU-145 prostate
EKVX NSCLC = system: EKVX NSCLC
HCC-2998 colon = system: HCC-2998 colon
HCT-116 colon = system: HCT-116 colon
HCT-15 colon = system: HCT-15 colon
HL-60(TB) leukemia = system: HL-60(TB) leukemia
HOP-62 NSCLC = system: HOP-62 NSCLC
HOP-92 NSCLC = system: HOP-92 NSCLC
HS 578T breast = system: HS 578T breast
HT29 colon = system: HT29 colon
IGROV1 ovarian = system: IGROV1 ovarian
K-562 leukemia = system: K-562 leukemia
KM12 colon = system: KM12 colon
LOX IMVI melanoma = system: LOX IMVI melanoma
M14 melanoma = system: M14 melanoma
MALME-3M melanoma = system: MALME-3M melanoma
MCF7 breast = system: MCF7 breast
MDA-MB-231 breast = system: MDA-MB-231 breast
MDA-MB-435 = system: MDA-MB-435
MOLT-4 leukemia = system: MOLT-4 leukemia
NCI-H226 lung = system: NCI-H226 lung
NCI-H460 lung = system: NCI-H460 lung
NCI-H522 lung = system: NCI-H522 lung
NCI/ADR-RES ovarian = system: NCI/ADR-RES ovarian
OVCAR-3 ovarian = system: OVCAR-3 ovarian
OVCAR-4 ovarian = system: OVCAR-4 ovarian
OVCAR-5 ovarian = system: OVCAR-5 ovarian
OVCAR-8 ovarian = system: OVCAR-8 ovarian
PC-3 prostate = system: PC-3 prostate
RPMI-8226 leukemia = system: RPMI-8226 leukemia
RXF 393 renal = system: RXF 393 renal
SF-268 CNS = system: SF-268 CNS
SF-295 CNS = system: SF-295 CNS
SF-539 CNS = system: SF-539 CNS
SK-MEL-2 melanoma = system: SK-MEL-2 melanoma
SK-MEL-28 melanoma = system: SK-MEL-28 melanoma
SK-MEL-5 melanoma = system: SK-MEL-5 melanoma
SK-OV-3 ovarian = system: SK-OV-3 ovarian
SN12C renal = system: SN12C renal
SNB-19 CNS = system: SNB-19 CNS
SNB-75 CNS = system: SNB-75 CNS
SR leukemia = system: SR leukemia
SW-620 colon = system: SW-620 colon
T-47D breast = system: T-47D breast
TK-10 renal = system: TK-10 renal
U251 CNS = system: U251 CNS
UACC-257 melanoma = system: UACC-257 melanoma
UACC-62 melanoma = system: UACC-62 melanoma
UO-31 renal = system: UO-31 renal

SMILES: CNC(=O)c1cc(-n2ccc3cc(NC(=O)Nc4ccc(N5CCOCC5)c(C(F)(F)F)c4)ccc32)ccn1
- GI50 (786-0 renal): 2.89 µM
- TGI (786-0 renal): > 33.3 µM
- GI50 (A498 renal): > 33.3 µM
- TGI (A498 renal): > 33.3 µM
- GI50 (A549 NSCLC): 5.15 µM
- TGI (A549 NSCLC): > 33.3 µM
- GI50 (ACHN renal): 5.69 µM
- TGI (ACHN renal): > 33.3 µM
- GI50 (BT-549 breast): 1.27 µM
- TGI (BT-549 breast): 8.9 µM
- GI50 (CAKI-1 renal): 10 µM
- TGI (CAKI-1 renal): > 33.3 µM
- GI50 (CCRF-CEM leukemia): 1.53 µM
- TGI (CCRF-CEM leukemia): > 33.3 µM
- GI50 (COLO 205 colon): 2.09 µM
- TGI (COLO 205 colon): > 33.3 µM
- GI50 (DU-145 prostate): 10.4 µM
- TGI (DU-145 prostate): > 33.3 µM
- GI50 (EKVX NSCLC): > 33.3 µM
- TGI (EKVX NSCLC): > 33.3 µM
- GI50 (HCC-2998 colon): 11.5 µM
- TGI (HCC-2998 colon): > 33.3 µM
- GI50 (HCT-116 colon): 2.09 µM
- TGI (HCT-116 colon): > 33.3 µM
- GI50 (HCT-15 colon): 1.93 µM
- TGI (HCT-15 colon): > 33.3 µM
- GI50 (HL-60(TB) leukemia): 1.62 µM
- TGI (HL-60(TB) leukemia): > 33.3 µM
- GI50 (HOP-62 NSCLC): 1.52 µM
- TGI (HOP-62 NSCLC): 14.6 µM
- GI50 (HOP-92 NSCLC): 2.11 µM
- TGI (HOP-92 NSCLC): > 33.3 µM
- GI50 (HS 578T breast): 1.85 µM
- TGI (HS 578T breast): > 33.3 µM
- GI50 (HT29 colon): 2.01 µM
- TGI (HT29 colon): > 33.3 µM
- GI50 (IGROV1 ovarian): 3.87 µM
- TGI (IGROV1 ovarian): > 33.3 µM
- GI50 (K-562 leukemia): 1.24 µM
- TGI (K-562 leukemia): > 33.3 µM
- GI50 (KM12 colon): 0.159 µM
- TGI (KM12 colon): > 33.3 µM
- GI50 (LOX IMVI melanoma): 0.251 µM
- TGI (LOX IMVI melanoma): > 33.3 µM
- GI50 (M14 melanoma): 3.11 µM
- TGI (M14 melanoma): > 33.3 µM
- GI50 (MALME-3M melanoma): 3.89 µM
- TGI (MALME-3M melanoma): > 33.3 µM
- GI50 (MCF7 breast): 1.7 µM
- TGI (MCF7 breast): > 33.3 µM
- GI50 (MDA-MB-231 breast): 17.9 µM
- TGI (MDA-MB-231 breast): > 33.3 µM
- GI50 (MDA-MB-435): 5.73 µM
- TGI (MDA-MB-435): > 33.3 µM
- GI50 (MOLT-4 leukemia): 1.93 µM
- TGI (MOLT-4 leukemia): > 33.3 µM
- GI50 (NCI-H226 lung): 3.69 µM
- TGI (NCI-H226 lung): > 33.3 µM
- GI50 (NCI-H460 lung): 4.39 µM
- TGI (NCI-H460 lung): > 33.3 µM
- GI50 (NCI-H522 lung): 2.9 µM
- TGI (NCI-H522 lung): > 33.3 µM
- GI50 (NCI/ADR-RES ovarian): 7.51 µM
- TGI (NCI/ADR-RES ovarian): > 33.3 µM
- GI50 (OVCAR-3 ovarian): 6.48 µM
- TGI (OVCAR-3 ovarian): > 33.3 µM
- GI50 (OVCAR-4 ovarian): 7.76 µM
- TGI (OVCAR-4 ovarian): > 33.3 µM
- GI50 (OVCAR-5 ovarian): 14.6 µM
- TGI (OVCAR-5 ovarian): > 33.3 µM
- GI50 (OVCAR-8 ovarian): 4.5 µM
- TGI (OVCAR-8 ovarian): > 33.3 µM
- GI50 (PC-3 prostate): 1.31 µM
- TGI (PC-3 prostate): > 33.3 µM
- GI50 (RPMI-8226 leukemia): 1.04 µM
- TGI (RPMI-8226 leukemia): 3.11 µM
- GI50 (RXF 393 renal): 0.595 µM
- TGI (RXF 393 renal): 1.62 µM
- GI50 (SF-268 CNS): 27.2 µM
- TGI (SF-268 CNS): > 33.3 µM
- GI50 (SF-295 CNS): 0.938 µM
- TGI (SF-295 CNS): 3.24 µM
- GI50 (SF-539 CNS): 1.41 µM
- TGI (SF-539 CNS): > 33.3 µM
- GI50 (SK-MEL-2 melanoma): 11.3 µM
- TGI (SK-MEL-2 melanoma): > 33.3 µM
- GI50 (SK-MEL-28 melanoma): 11.7 µM
- TGI (SK-MEL-28 melanoma): > 33.3 µM
- GI50 (SK-MEL-5 melanoma): 1.32 µM
- TGI (SK-MEL-5 melanoma): 7.58 µM
- GI50 (SK-OV-3 ovarian): 26.7 µM
- TGI (SK-OV-3 ovarian): > 33.3 µM
- GI50 (SN12C renal): 9.21 µM
- TGI (SN12C renal): > 33.3 µM
- GI50 (SNB-19 CNS): 15 µM
- TGI (SNB-19 CNS): > 33.3 µM
- GI50 (SNB-75 CNS): 6.38 µM
- TGI (SNB-75 CNS): > 33.3 µM
- GI50 (SR leukemia): 1.88 µM
- TGI (SR leukemia): > 33.3 µM
- GI50 (SW-620 colon): 8.36 µM
- TGI (SW-620 colon): > 33.3 µM
- GI50 (T-47D breast): 0.907 µM
- TGI (T-47D breast): 15.5 µM
- GI50 (TK-10 renal): 27.6 µM
- TGI (TK-10 renal): > 33.3 µM
- GI50 (U251 CNS): 3.23 µM
- TGI (U251 CNS): > 33.3 µM
- GI50 (UACC-257 melanoma): 8.89 µM
- TGI (UACC-257 melanoma): > 33.3 µM
- GI50 (UACC-62 melanoma): 1.27 µM
- TGI (UACC-62 melanoma): 14.7 µM
- GI50 (UO-31 renal): 3.55 µM
- TGI (UO-31 renal): > 33.3 µM

Reference: PubChem BioAssay (NCI)
